Results from patent US9878007B2, “Syndecan peptides and polypeptides as inhibitors of vascular endothelial growth factor receptor-2 (VEGFR2) and very late antigen-4 (VLA-4)” (Wisconsin Alumni Research Foundation, priority 2015, dated 2018).

Assays:
HMEC-1 cells = experiment: In vitro tube formation assay of HMEC-1 cells on Matrigel; format: cell-based; settings: 24 hrs, 10 μM peptides
Method: FIGS. 8A-H. HPSE mediated the Sdc1-coupled VEGFR2 complex in endothelial cells induces angiogenesis. (FIG. 8A) Lysates from HPSE^low, HPSE^high and HMEC-1 cells are probed by immunoblotting for expression of HPSE. (FIG. 8B) HMEC-1 cells were seeded at equal density and grown in serum-free media for 24 hr in the absence or presence of 125 μg/ml of the HPSE inhibitor SST0001. After 24 hr, conditioned media were harvested, and the level of shed Sdc1 in the conditioned medium from each condition was determined by immunoblotting. (FIG. 8C) HMEC-1 cell lysate was incubated overnight with glutathione beads coated with GST or GST-S1ED. Capture of VLA-4 or VEGFR2 was detected by immunoblotting. (FIG. 8D) HMEC-1 cells were plated on IIICS for 3 hr and double stained for VLA-4 and Sdc1, VEGFR2 and Sdc1, or VLA-4 and VEGFR2. (FIG. 8E) HMEC-1 cells were treated with DMSO, VLA-4 blocking antibody P1H4, β1-integrin blocking antibody mAb13, 10 μg/ml MMP9 blocking antibody, 125 μg/ml HPSE inhibitor SST0001, Vandetanib, VEGFR2 blocking antibody, 30 μM S1ED^210-233 or 30 μM S1ED^214-240 and then plated on IIICS. Images were taken from random field with 200× magnification for counting attached and spread cells. (FIG. 8F) HMEC-1 cells were plated on IIICS in the presence of 10 μM of S1ED^210-236, S1ED^210-233, S1ED^215-240, and S1ED^214-240. Lysates were probed on immunoblots with antibodies against pY^1175 VEGFR2 and VEGFR2. (FIG. 8G) Transwell migration assays towards IIICS (for 16 hr) were performed for HMEC-1 cells in the presence of P1H4, SST0001, Anti-MMP9, Vandetanib, S1ED^210-236, S1ED^210-233, and S1ED^214-240. Images were taken from random field with 200× magnification for counting migrated cells. (FIG. 8H) A 96-well plate coated with 50 μl Matrigel containing 100 μg/ml IIICS per well was solidified at 37° C. for 2 hrs. HMEC-1 cells (2.5×10^4 cells/well) were seeded into the plate and cultured in media containing VEGF, SST0001, 10 μM of S1ED^210-236, S1ED^210-233, S1ED^215-240, and S1ED^214-240 for 24 hrs. Enclosed capillary networks of tubes were taken from random field with 200× magnification.

CAG myeloma cells [1] = experiment: Cell spreading / attachment assay of CAG myeloma cells on FN or VCAM-1; format: cell-based, human; settings: 20 ng/ml VEGF
[2] = system: P3x63Ag8 mouse myeloma cells; experiment: Invasion of P3x63Ag8 myeloma cells through FN-coated filters; format: cell-based; settings: 16 hr
Method: FIG. 7A-B. S1ED^214-236, specific for VEGFR2 coupling to VLA-4, blocks myeloma cell invasion but not adhesion. (FIG. 7A) P3x63Ag8 mouse myeloma cells are plating on the VLA-4 ligand FN in the presence or absence of 30 uM S1ED^210-233 (SEQ ID No: 4) or S1ED^214-236 (SEQ ID No: 7) for 2.5 hr. (FIG. 7B) P3x63Ag8 myeloma cells are plated on FN-coated filters in the presence of HPSE inhibitor OGT2115, VLA-4 blocking antibody P1H4, VEGFR2 inhibitor Vandetanib or S1ED^210-233 or S1ED^214-236 and allowed to migrate through the filter for 16 hr. Small black dots are the pores in the filter.
The bottom chambers of Transwell filter chambers (8 μm pores; Corning) were coated with 40 μg/ml of FN. Cells (5×10^5 in 0.2 ml plating medium) were placed in the upper chamber and incubated for 16 hr at 37° C. in the CO2 incubator. After incubation, cells in the upper chamber were removed and cells on the bottom side of the filter were fixed in 4% paraformaldehyde (PFA) and stained with 0.1% Crystal Violet before imaging. Cells from at least five random fields were counted.

CAG myeloma cells [3] = experiment: Cell spreading / attachment assay of CAG myeloma cells on FN or VCAM-1; format: cell-based, human; settings: heparinase III pre-treatment before plating on FN and VCAM-1
Method: Nitrocellulose-coated slides were coated for 2 hr at 37° C. with 40 μg/ml FN (kindly provided by Dr. Donna Peters, University of Wisconsin-Madison) or 5 μg/ml recombinant VCAM-1/Fc chimera (R&D Systems) in calcium and magnesium-free PBS (CMF-PBS; 135 mM NaCl, 2.7 mM KCl, 10.2 mM Na2HPO4-7H20 and 1.75 mM KH2PO4, pH7.4). Slides were blocked for 1 hr at 37° C. with RPMI 1640 containing 1% heat-denatured BSA (plating medium). Cells in plating medium were allowed to attach and spread for 2.5 hr at 37° C. Slides were fixed in 4% EM grade paraformaldehyde (Electron Microscopy Sciences) in CMF-PBS and labeled for 30 min in 0.13 μM rhodamine phalloidin (Invitrogen) in CMF-PBS. Coverslips were mounted in non-fluorescing mounting medium (Immumount; Thermo Shandon) and allowed to dry. All images were acquired with a Nikon Microphot FX microscope using a 20× objective (Nikon; Ex 541-551, DM 580, Barrier 590), Photometric CoolSnap ES camera, and version 7.7.3.0 Metamorph© Imaging software (Molecular Devices). All images represent results from triplicate wells and at least three independent experiments.

VEGF [reference compound]
tube formation by HMEC-1 cells (HMEC-1 cells): not enhanced by VEGF
induction of HPSE^low cell spreading by VEGF (CAG myeloma cells [1]): failed to induce spreading of the cells

O=C(O)Cc1ccc2oc(-c3ccc(NC(=O)/C=C/c4ccc(Br)cc4)c(F)c3)nc2c1 [OGT2115, reference compound]
invasion / migration of P3X cells through FN-coated filters [2]: Cell migration is only observed in the untreated controls

B1: HPIII: heparinase III, a bacterial enzyme that completely degrades the HS (protein, UniProt Q59289 25-659, looked up)
Heparin-sulfate lyase: QSSSITRKDFDHINLEYSGLEKVNKAVAAGNYDDAAKALLAYYREKSKAREPDFSNAEKPADIRQPIDKVTREMADKALVHQFQPHKGYGYFDYGKDINWQMWPVKDNEVRWQLHRVKWWQAMALVYHATGDEKYAREWVYQYSDWARKNPLGLSQDNDKFVWRPLEVSDRVQSLPPTFSLFVNSPAFTPAFLMEFLNSYHQQADYLSTHYAEQGNHRLFEAQRNLFAGVSFPEFKDSPRWRQTGISVLNTEIKKQVYADGMQFELSPIYHVAAIDIFLKAYGSAKRVNLEKEFPQSYVQTVENMIMALISISLPDYNTPMFGDSWITDKNFRMAQFASWARVFPANQAIKYFATDGKQGKAPNFLSKALSNAGFYTFRSGWDKNATVMVLKASPPGEFHAQPDNGTFELFIKGRNFTPDAGVFVYSGDEAIMKLRNWYRQTRIHSTLTLDNQNMVITKARQNKWETGNNLDVLTYTNPSYPNLDHQRSVLFINKKYFLVIDRAIGEATGNLGVHWQLKEDSNPVFDKTKNRVYTTYRDGNNLMIQSLNADRTSLNEEEGKVSYVYNKELKRPAFVFEKPKKNAGTQNFVSIVYPYDGQKAPEISIRENKGNDFEKGKLNLTLTINGKQQLVLVP
induction of HPSE^low cell spreading (CAG myeloma cells [3]): induces spreading of HPSE^low cells comparable to that observed for HPSE^high cells
